Test results: PubChem BioAssay AID1963440 (Molecular Pharmacology Branch, DTP, NCI, 2024)
Blank lines part the entries; values can stand above or below the compound they belong to.

System: NCI-H1417 complex spheroids, growth % test/control
Test: Anticancer human tumor NCI-H1417 cell line growth inhibition [Asc];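 note: spheroids exposed to compounds for 7 days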;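 for viability, T/C: 100% = DMSO vehicle control wells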
Details: for IC50: curve of first compound; for viability, T/C: stronger effect = lower value
Method in brief: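 Complex solid-tumor spheroids incorporating human endothelial and mesenchymal stem cells received single agents or combinations over half-log dilution ranges anchored to clinical Cmax.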

[1] = second compound 0.03 µM, first compound 0.0316 µM
[2] = second compound 0.03 µM, first compound 0.1 µM
[3] = second compound 0.03 µM, first compound 0.316 µM
[4] = second compound 0.03 µM, first compound 1 µM
[5] = second compound 0.03 µM, first compound 3.16 µM
[6] = second compound 0.03 µM, first compound 10 µM
[7] = second compound 0.0949 µM, first compound 0.0316 µM
[8] = second compound 0.0949 µM, first compound 0.1 µM
[9] = second compound 0.0949 µM, first compound 0.316 µM
[10] = second compound 0.0949 µM, first compound 1 µM
[11] = second compound 0.0949 µM, first compound 3.16 µM
[12] = second compound 0.0949 µM, first compound 10 µM
[13] = second compound 0.3 µM, first compound 0.0316 µM
[14] = second compound 0.3 µM, first compound 0.1 µM
[15] = second compound 0.3 µM, first compound 0.316 µM
[16] = second compound 0.3 µM, first compound 1 µM
[17] = second compound 0.3 µM, first compound 3.16 µM
[18] = second compound 0.3 µM, first compound 10 µM
[19] = second compound 0.949 µM, first compound 0.0316 µM
[20] = second compound 0.949 µM, first compound 0.1 µM
[21] = second compound 0.949 µM, first compound 0.316 µM
[22] = second compound 0.949 µM, first compound 1 µM
[23] = second compound 0.949 µM, first compound 3.16 µM
[24] = second compound 0.949 µM, first compound 10 µM
[25] = second compound 3 µM, first compound 0.0316 µM
[26] = second compound 3 µM, first compound 0.1 µM
[27] = second compound 3 µM, first compound 0.316 µM
[28] = second compound 3 µM, first compound 1 µM
[29] = second compound 3 µM, first compound 3.16 µM
[30] = second compound 3 µM, first compound 10 µM
[31] = second compound 0.03 µM, first compound 0.00316 µM
[32] = second compound 0.03 µM, first compound 0.01 µM
[33] = second compound 0.0949 µM, first compound 0.00316 µM
[34] = second compound 0.0949 µM, first compound 0.01 µM
[35] = second compound 0.3 µM, first compound 0.00316 µM
[36] = second compound 0.3 µM, first compound 0.01 µM
[37] = second compound 0.949 µM, first compound 0.00316 µM
[38] = second compound 0.949 µM, first compound 0.01 µM
[39] = second compound 3 µM, first compound 0.00316 µM
[40] = second compound 3 µM, first compound 0.01 µM

Structure (SMILES): C#Cc1c(F)ccc2cc(O)cc(-c3ncc4c(N5CC6CCC(C5)N6)nc(OCC56CCCN5CC(F)C6)nc4c3F)c12 (stereo not given) + CCN1C(C(=O)NC23CCC(C(=O)O)(CC2)CC3)C(c2cccc(Cl)c2F)C2(C(=O)Nc3cc(Cl)ccc32)C12CCCCC2
IC50 (second compound 0.03 µM): > 10 µM
IC50 (second compound 0.0949 µM): > 10 µM
IC50 (second compound 0.3 µM): > 10 µM
IC50 (second compound 0.949 µM): > 10 µM
IC50 (second compound 3 µM): > 10 µM
viability, T/C [1]: 101%
viability, T/C [2]: 106%
viability, T/C [3]: 106%
viability, T/C [4]: 102%
viability, T/C [5]: 103%
viability, T/C [6]: 111%
viability, T/C [7]: 107%
viability, T/C [8]: 103%
viability, T/C [9]: 93.9%
viability, T/C [10]: 95.2%
viability, T/C [11]: 108%
viability, T/C [12]: 109%
viability, T/C [13]: 98.2%
viability, T/C [14]: 94.7%
viability, T/C [15]: 94.8%
viability, T/C [16]: 105%
viability, T/C [17]: 108%
viability, T/C [18]: 108%
viability, T/C [19]: 88.2%
viability, T/C [20]: 96.9%
viability, T/C [21]: 97.3%
viability, T/C [22]: 88.3%
viability, T/C [23]: 84%
viability, T/C [24]: 77.3%
viability, T/C [25]: 91%
viability, T/C [26]: 88.1%
viability, T/C [27]: 105%
viability, T/C [28]: 88.7%
viability, T/C [29]: 89.5%
viability, T/C [30]: 95.7%

Structure (SMILES): C=CC(=O)N1CCN(c2nc(=O)n(-c3c(C)ccnc3C(C)C)c3nc(-c4c(O)cccc4F)c(F)cc23)C(C)C1 (stereo not given) + CCN1C(C(=O)NC23CCC(C(=O)O)(CC2)CC3)C(c2cccc(Cl)c2F)C2(C(=O)Nc3cc(Cl)ccc32)C12CCCCC2
IC50 (second compound 0.03 µM): > 10 µM
IC50 (second compound 0.0949 µM): > 10 µM
IC50 (second compound 0.3 µM): > 10 µM
IC50 (second compound 0.949 µM): > 10 µM
IC50 (second compound 3 µM): > 10 µM
viability, T/C [1]: 94.4%
viability, T/C [2]: 100%
viability, T/C [3]: 109%
viability, T/C [4]: 101%
viability, T/C [5]: 115%
viability, T/C [6]: 105%
viability, T/C [7]: 102%
viability, T/C [8]: 94.4%
viability, T/C [9]: 98.4%
viability, T/C [10]: 101%
viability, T/C [11]: 104%
viability, T/C [12]: 119%
viability, T/C [13]: 102%
viability, T/C [14]: 107%
viability, T/C [15]: 106%
viability, T/C [16]: 94.3%
viability, T/C [17]: 99.8%
viability, T/C [18]: 112%
viability, T/C [19]: 94.3%
viability, T/C [20]: 95.4%
viability, T/C [21]: 93.1%
viability, T/C [22]: 97.9%
viability, T/C [23]: 95.5%
viability, T/C [24]: 99.5%
viability, T/C [25]: 91.6%
viability, T/C [26]: 93.2%
viability, T/C [27]: 98.5%
viability, T/C [28]: 93.7%
viability, T/C [29]: 93.4%
viability, T/C [30]: 103%

Structure (SMILES): COc1c(OCCCN2CCOCC2)ccc2c3n(c(=NC(=O)c4cnc(N)nc4)nc12)CCN3 + CCN1C(C(=O)NC23CCC(C(=O)O)(CC2)CC3)C(c2cccc(Cl)c2F)C2(C(=O)Nc3cc(Cl)ccc32)C12CCCCC2
IC50 (second compound 0.03 µM): > 1 µM
IC50 (second compound 0.0949 µM): > 1 µM
IC50 (second compound 0.3 µM): > 1 µM
IC50 (second compound 0.949 µM): 0.484 µM
IC50 (second compound 3 µM): 0.243 µM
viability, T/C [31]: 107%
viability, T/C [32]: 114%
viability, T/C [1]: 95.8%
viability, T/C [2]: 100%
viability, T/C [3]: 96.7%
viability, T/C [4]: 59.2%
viability, T/C [33]: 94.6%
viability, T/C [34]: 96.7%
viability, T/C [7]: 87.2%
viability, T/C [8]: 90.3%
viability, T/C [9]: 80.5%
viability, T/C [10]: 58.7%
viability, T/C [35]: 93.2%
viability, T/C [36]: 93.6%
viability, T/C [13]: 81.2%
viability, T/C [14]: 74.8%
viability, T/C [15]: 57.6%
viability, T/C [16]: 51.5%
viability, T/C [37]: 89.6%
viability, T/C [38]: 92.2%
viability, T/C [19]: 81%
viability, T/C [20]: 64.9%
viability, T/C [21]: 55.8%
viability, T/C [22]: 43.6%
viability, T/C [39]: 92.4%
viability, T/C [40]: 89.8%
viability, T/C [25]: 86.7%
viability, T/C [26]: 63.1%
viability, T/C [27]: 47.7%
viability, T/C [28]: 36%

Now from value to compound, other results behind:

IC50 (second compound 0.03 µM): 3.58 µM
IC50 (second compound 0.0949 µM): 3.25 µM
IC50 (second compound 0.3 µM): 3.33 µM
IC50 (second compound 0.949 µM): 2.77 µM
IC50 (second compound 3 µM): 2.25 µM
Structure (SMILES): C=C(F)C(=O)N1CCN(c2nc(OCC3CCCN3C)nc3c2CCN(c2cccc4cccc(Cl)c24)C3)CC1CC#N (stereo not given) + CCN1C(C(=O)NC23CCC(C(=O)O)(CC2)CC3)C(c2cccc(Cl)c2F)C2(C(=O)Nc3cc(Cl)ccc32)C12CCCCC2
viability, T/C [1]: 107%
viability, T/C [2]: 111%
viability, T/C [3]: 102%
viability, T/C [4]: 95.4%
viability, T/C [5]: 55.8%
viability, T/C [6]: 0.19%
viability, T/C [7]: 97.9%
viability, T/C [8]: 93.6%
viability, T/C [9]: 100%
viability, T/C [10]: 91%
viability, T/C [11]: 51.3%
viability, T/C [12]: 0.19%
viability, T/C [13]: 103%
viability, T/C [14]: 98.5%
viability, T/C [15]: 97.4%
viability, T/C [16]: 87%
viability, T/C [17]: 52.3%
viability, T/C [18]: 0.17%
viability, T/C [19]: 100%
viability, T/C [20]: 102%
viability, T/C [21]: 85.5%
viability, T/C [22]: 82.4%
viability, T/C [23]: 44.9%
viability, T/C [24]: 0.19%
viability, T/C [25]: 93.3%
viability, T/C [26]: 89.9%
viability, T/C [27]: 86.1%
viability, T/C [28]: 79.1%
viability, T/C [29]: 37.8%
viability, T/C [30]: 0.4%

IC50 (second compound 0.03 µM): > 1 µM
IC50 (second compound 0.0949 µM): > 1 µM
IC50 (second compound 0.3 µM): > 1 µM
IC50 (second compound 0.949 µM): > 1 µM
IC50 (second compound 3 µM): > 1 µM
Structure (SMILES): CNC(C)C(=O)NC1CN(S(=O)(=O)c2cccc(S(=O)(=O)N3CCC4CCC(C(=O)NC(c5ccccc5)c5ccccc5)N4C(=O)C(NC(=O)C(C)NC)C3)c2)CCC2CCC(C(=O)NC(c3ccccc3)c3ccccc3)N2C1=O (stereo not given) + CCN1C(C(=O)NC23CCC(C(=O)O)(CC2)CC3)C(c2cccc(Cl)c2F)C2(C(=O)Nc3cc(Cl)ccc32)C12CCCCC2
viability, T/C [31]: 121%
viability, T/C [32]: 107%
viability, T/C [1]: 112%
viability, T/C [2]: 111%
viability, T/C [3]: 99.8%
viability, T/C [4]: 109%
viability, T/C [33]: 101%
viability, T/C [34]: 94.8%
viability, T/C [7]: 108%
viability, T/C [8]: 91.5%
viability, T/C [9]: 101%
viability, T/C [10]: 115%
viability, T/C [35]: 116%
viability, T/C [36]: 118%
viability, T/C [13]: 94.6%
viability, T/C [14]: 104%
viability, T/C [15]: 105%
viability, T/C [16]: 100%
viability, T/C [37]: 97%
viability, T/C [38]: 98.9%
viability, T/C [19]: 93.4%
viability, T/C [20]: 97.5%
viability, T/C [21]: 87.1%
viability, T/C [22]: 91.1%
viability, T/C [39]: 97.2%
viability, T/C [40]: 98.8%
viability, T/C [25]: 91.8%
viability, T/C [26]: 90.8%
viability, T/C [27]: 84.2%
viability, T/C [28]: 99.4%
